# Experimental data from PubChem BioAssay (NCI).
#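 GI50: concentration for 50% inhibition of growth. The concentration for full growth arrest is given as TGI.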
# Legend:
# Experiment in all cases: growth of human tumour cells (NCI), 384-well format
# [1] = system: 786-0 renal
# [2] = system: A498 renal
# [3] = system: A549 NSCLC
# [4] = system: ACHN renal
# [5] = system: BT-549 breast
# [6] = system: CAKI-1 renal
# [7] = system: CCRF-CEM leukemia
# [8] = system: COLO 205 colon
# [9] = system: DU-145 prostate
# [10] = system: EKVX NSCLC
# [11] = system: HCC-2998 colon
# [12] = system: HCT-116 colon
# [13] = system: HCT-15 colon
# [14] = system: HL-60(TB) leukemia
# [15] = system: HOP-62 NSCLC
# [16] = system: HOP-92 NSCLC
# [17] = system: HS 578T breast
# [18] = system: HT29 colon
# [19] = system: IGROV1 ovarian
# [20] = system: K-562 leukemia
# [21] = system: KM12 colon
# [22] = system: LOX IMVI melanoma
# [23] = system: M14 melanoma
# [24] = system: MALME-3M melanoma
# [25] = system: MCF7 breast
# [26] = system: MDA-MB-231 breast
# [27] = system: MDA-MB-435 melanoma
# [28] = system: MDA-MB-468 breast
# [29] = system: MOLT-4 leukemia
# [30] = system: NCI-H226 lung
# [31] = system: NCI-H23 lung
# [32] = system: NCI-H322M lung
# [33] = system: NCI-H460 NSCLC
# [34] = system: NCI-H522 lung
# [35] = system: NCI/ADR-RES ovarian
# [36] = system: OVCAR-3 ovarian
# [37] = system: OVCAR-4 ovarian
# [38] = system: OVCAR-5 ovarian
# [39] = system: OVCAR-8 ovarian
# [40] = system: PC-3 prostate
# [41] = system: RPMI-8226 leukemia
# [42] = system: RXF 393 renal
# [43] = system: SF-268 CNS
# [44] = system: SF-295 CNS
# [45] = system: SF-539 CNS
# [46] = system: SK-MEL-28 melanoma
# [47] = system: SK-MEL-5 melanoma
# [48] = system: SK-OV-3 ovarian
# [49] = system: SN12C renal
# [50] = system: SNB-19 CNS
# [51] = system: SNB-75 CNS
# [52] = system: SW-620 colon
# [53] = system: T-47D breast
# [54] = system: TK-10 renal
# [55] = system: U251 glioblastoma
# [56] = system: UACC-62 melanoma
# [57] = system: UO-31 renal
structure (smiles),measurement,setting,value
Cn1ccc(S(=O)(=O)N2CCC[C@H](Nc3nccc(-c4c(-c5cccc(O)c5)nc5occn45)n3)C2)n1,GI50,[1],7.2 µM
same,TGI,[1],32.5 µM
same,GI50,[2],3.82 µM
same,TGI,[2],17.2 µM
same,GI50,[3],11.9 µM
same,TGI,[3],25.2 µM
same,GI50,[4],7.99 µM
same,TGI,[4],35.8 µM
same,GI50,[5],7.47 µM
same,TGI,[5],21.8 µM
same,GI50,[6],4.38 µM
same,TGI,[6],19.3 µM
same,GI50,[7],2.32 µM
same,TGI,[7],4.7 µM
same,GI50,[8],< 0.01 µM
same,TGI,[8],20.2 µM
same,GI50,[9],14.4 µM
same,TGI,[9],33.8 µM
same,GI50,[10],4.71 µM
same,TGI,[10],17.5 µM
same,GI50,[11],4.05 µM
same,TGI,[11],11.2 µM
same,GI50,[12],3.59 µM
same,TGI,[12],16.4 µM
same,GI50,[13],14.2 µM
same,TGI,[13],35.7 µM
same,GI50,[14],8.06 µM
same,TGI,[14],20.1 µM
same,GI50,[15],10.4 µM
same,TGI,[15],30.7 µM
same,GI50,[16],5.55 µM
same,TGI,[16],26.4 µM
same,GI50,[17],3.33 µM
same,TGI,[17],15.8 µM
same,GI50,[18],0.325 µM
same,TGI,[18],13.7 µM
same,GI50,[19],4.14 µM
same,TGI,[19],17 µM
same,GI50,[20],7.07 µM
same,TGI,[20],41.4 µM
same,GI50,[21],15.1 µM
same,TGI,[21],35.5 µM
same,GI50,[22],1.24 µM
same,TGI,[22],2.83 µM
same,GI50,[23],< 0.01 µM
same,TGI,[23],1.15 µM
same,GI50,[24],< 0.01 µM
same,GI50,[25],6.67 µM
same,TGI,[25],19.9 µM
same,GI50,[26],2.04 µM
same,TGI,[26],23.6 µM
same,GI50,[27],0.0187 µM
same,TGI,[27],21.5 µM
same,GI50,[28],5.59 µM
same,TGI,[28],18.5 µM
same,GI50,[29],5.62 µM
same,TGI,[29],17.1 µM
same,GI50,[30],11.2 µM
same,TGI,[30],37.8 µM
same,GI50,[31],3.95 µM
same,TGI,[31],17.8 µM
same,GI50,[32],10.1 µM
same,TGI,[32],35.9 µM
same,GI50,[33],12.1 µM
same,TGI,[33],26.3 µM
same,GI50,[34],15.1 µM
same,TGI,[34],29.5 µM
same,GI50,[35],> 100 µM
same,TGI,[35],> 100 µM
same,GI50,[36],6.66 µM
same,TGI,[36],19.2 µM
same,GI50,[37],20.2 µM
same,TGI,[37],46 µM
same,GI50,[38],11.9 µM
same,TGI,[38],38.4 µM
same,GI50,[39],13.3 µM
same,TGI,[39],36.9 µM
same,GI50,[40],8.79 µM
same,TGI,[40],34 µM
same,GI50,[41],10.5 µM
same,TGI,[41],22.4 µM
same,GI50,[42],5.61 µM
same,TGI,[42],19.2 µM
same,GI50,[43],3.65 µM
same,TGI,[43],13.8 µM
same,GI50,[44],20.2 µM
same,TGI,[44],43.5 µM
same,GI50,[45],12.6 µM
same,TGI,[45],25.5 µM
same,GI50,[46],< 0.01 µM
same,TGI,[46],0.602 µM
same,GI50,[47],0.0669 µM
same,TGI,[47],14 µM
same,GI50,[48],6.83 µM
same,TGI,[48],23.6 µM
same,GI50,[49],8.01 µM
same,TGI,[49],30.7 µM
same,GI50,[50],27.1 µM
same,TGI,[50],> 100 µM
same,GI50,[51],4.98 µM
same,TGI,[51],31.7 µM
same,GI50,[52],11.6 µM
same,TGI,[52],25.5 µM
same,GI50,[53],11.1 µM
same,TGI,[53],23.4 µM
same,GI50,[54],11.3 µM
same,TGI,[54],48.2 µM
same,GI50,[55],12.2 µM
same,TGI,[55],26.5 µM
same,GI50,[56],< 0.01 µM
same,GI50,[57],1.64 µM
same,TGI,[57],22 µM
